In brackets after ≈: the same amount, converted by molar mass. Where two headings read alike, the source gives them in different places.
Key:
[1] = Lipophilicity determination by RP-HPLC (log k, log D); assay type: physicochemical; conditions: for log k: MeOH 72%/H2O 28%; for log D6.5: MeOH 72%/acetate buffered saline pH 6.5; for log D7.4: MeOH 72%/acetate buffered saline pH 7.4
Procedure: In addition to the mentioned ADME profile, it is responsible for interactions with biological targets. Lipophilicity is recognized as one of the most important parameters influencing ADME and bioactivity and is also part, e.g., of Lipinski’s Rule of Five (Ro5). This thermodynamic parameter describing the molecule’s affinity for an aqueous or relatively lipophilic environment can be characterized by the logarithm of the partition coefficient (log P). In this study, lipophilicity was measured by reversed-phase high-performance liquid chromatography (RP-HPLC) under isocratic conditions with methanol as the organic modifier in the aqueous mobile phase and the logarithm of the capacity factor k was calculated, which is used as the lipophilicity index converted to the log P scale. In addition to the log k values, the logarithm of the distribution coefficient DpH at pH 6.5 and 7.4 was determined to clarify the behavior of the compounds under physiological conditions and possible ionization. Instead of water, a buffer of suitable pH was used as part of the mobile phase. In addition to the above-mentioned experimental methods, commercially available ChemBioDraw Ultra 13.0 and ACD/Percepta ver. 2012 programs were used to calculate the lipophilicity values of all prepared compounds.
A HPLC separation module Waters Alliance 2695 XE equipped with a Waters Dual Absorbance Detector 2486 (Waters Corp., Milford, MA, USA) was used. A chromatographic column Symmetry® C18 5 μm, 4.6 × 250 mm, Part No. W21751W016 (Waters Corp., Milford, MA, USA) was used. The HPLC separation process was monitored by Empower® 3 Chromatography Manager Software (Waters Corp.). Isocratic elution by a mixture of MeOH p.a. (72%) and H2O-HPLC Mili-Q grade (28%) as a mobile phase was used for the determination of capacity factor k. Isocratic elution by a mixture of MeOH p.a. (72%) and acetate buffered saline (pH 7.4 and pH 6.5) (28%) as a mobile phase was used for the determination of distribution coefficient expressed as D7.4 and D6.5. The total flow of the column was 1.0 mL/min, injection 20 μL, column temperature 40 °C, and sample temperature 10 °C. The detection wavelength of 210 nm was chosen. A KI methanolic solution was used for the determination of the dead times (tD). Retention times (tR) were measured in minutes. The capacity factors k were calculated according to the formula k = (tR − tD)/tD, where tR is the retention time of the solute, and tD is the dead time obtained using an unretained analyte. The distribution coefficients DpH were calculated according to the formula DpH = (tR − tD)/tD. Each experiment was repeated three times.

[2] = system: Mycobacterium smegmatis ATCC 700084; assay: In vitro antimycobacterial activity, broth dilution MIC; assay type: cell-based; conditions: Mycolicibacterium smegmatis
[3] = system: Mycobacterium marinum CAMP 5644; assay: as above; assay type: cell-based; conditions: CAMP5644, 504 h
[4] = ATCC700084, 72 h, M. smegmatis ATCC 700084, three days, read-out: MIC MS
[5] = ATCC700084, M. smegmatis ATCC 700084, read-out: log(1/MIC [M]) MS (converted)
[6] = M. marinum CAMP 5644, 21 days, read-out: MIC MM
[7] = M. marinum CAMP 5644, read-out: log(1/MIC [M]) MM (converted)

Compound	log k [1]	log D6.5 [1]	log D7.4 [1]	MIC [2, 4]	MIC [2, 5]	MIC [3, 6]	MIC [3, 7]
O=C(/C=C/c1ccc(Cl)cc1)Nc1ccccc1 [1a, (2E)-3-(4-Chlorophenyl)-N-phenylprop-2-enamide]	0.4490	0.4428	0.4515				
O=C(/C=C/c1ccc(Cl)cc1)Nc1ccccc1F [1b, (2E)-3-(4-Chlorophenyl)-N-(2-fluorophenyl)prop-2-enamide]	0.6459	0.5908	0.5965				
O=C(/C=C/c1ccc(Cl)cc1)Nc1cccc(F)c1 [1c, (2E)-3-(4-Chlorophenyl)-N-(3-fluorophenyl)prop-2-enamide]	0.7859	0.7296	0.7325				
O=C(/C=C/c1ccc(Cl)cc1)Nc1ccc(F)cc1 [1d, (2E)-3-(4-Chlorophenyl)-N-(4-fluorophenyl)prop-2-enamide]	0.7808	0.7252	0.7290				
O=C(/C=C/c1ccc(Cl)cc1)Nc1ccccc1Cl [1e, (2E)-N-(2-Chlorophenyl)-3-(4-chlorophenyl)prop-2-enamide]	0.5241	0.4650	0.4724				
O=C(/C=C/c1ccc(Cl)cc1)Nc1cccc(Cl)c1 [1f, (2E)-N-(3-Chlorophenyl)-3-(4-chlorophenyl)prop-2-enamide]	0.6192	0.5603	0.5666				
O=C(/C=C/c1ccc(Cl)cc1)Nc1ccc(Cl)cc1 [1g, (2E)-N,3-bis(4-Chlorophenyl)prop-2-enamide]	0.5598	0.5012	0.5065				
O=C(/C=C/c1ccc(Cl)cc1)Nc1ccccc1C(F)(F)F [1h, (2E)-3-(4-Chlorophenyl)-N-[2-(trifluoromethyl)phenyl]prop-2-enamide]	0.5506	0.4938	0.5010				
O=C(/C=C/c1ccc(Cl)cc1)Nc1ccc(C(F)(F)F)cc1 [1j, (2E)-3-(4-Chlorophenyl)-N-[4-(trifluoromethyl)phenyl]prop-2-enamide]	0.9078	0.8541	0.8560				
O=C(/C=C/c1ccc(Cl)cc1)Nc1ccc(OC(F)(F)F)cc1 [1k, (2E)-3-(4-Chlorophenyl)-N-[4-(trifluoromethoxy)phenyl]prop-2-enamide]	0.8759	0.8702	0.8754				
O=C(/C=C/c1ccc(Cl)cc1)Nc1ccc(F)cc1F [1l, (2E)-3-(4-Chlorophenyl)-N-(2,4-difluorophenyl)prop-2-enamide]	0.5746	0.5172	0.5223				
O=C(/C=C/c1ccc(Cl)cc1)Nc1cc(F)cc(F)c1 [1m, (2E)-3-(4-Chlorophenyl)-N-(3,5-difluorophenyl)prop-2-enamide]	0.8054	0.7502	0.7537				
O=C(/C=C/c1ccc(Cl)cc1)Nc1ccc(Cl)cc1Cl [1n, (2E)-3-(4-Chlorophenyl)-N-(2,4-dichlorophenyl)prop-2-enamide]	0.9665	0.9141	0.9170				
O=C(/C=C/c1ccc(Cl)cc1)Nc1cc(Cl)ccc1Cl [1o, (2E)-3-(4-Chlorophenyl)-N-(2,5-dichlorophenyl)prop-2-enamide]	0.9507	0.8986	0.9010				
O=C(/C=C/c1ccc(Cl)c(Cl)c1)Nc1ccccc1F [2b, (2E)-N-(2-Fluorophenyl)-3-(3,4-dichlorophenyl)prop-2-enamide]	0.7764	0.8203	0.8019				
O=C(/C=C/c1ccc(Cl)c(Cl)c1)Nc1cccc(F)c1 [2c, (2E)-N-(3-Fluorophenyl)-3-(3,4-dichlorophenyl)prop-2-enamide]	0.9071	0.9453	0.8735				
O=C(/C=C/c1ccc(Cl)c(Cl)c1)Nc1ccc(F)cc1 [2d, (2E)-N-(4-Fluorophenyl)-3-(3,4-dichlorophenyl)prop-2-enamide]	0.9009	0.9381	0.8660				
O=C(/C=C/c1ccc(Cl)c(Cl)c1)Nc1ccccc1Cl [2e, (2E)-N-(2-Chlorophenyl)-3-(3,4-dichlorophenyl)prop-2-enamide]	0.6488	0.6925	0.6739				
O=C(/C=C/c1ccc(Cl)c(Cl)c1)Nc1cccc(Cl)c1 [2f, (2E)-N-(3-Chlorophenyl)-3-(3,4-dichlorophenyl)prop-2-enamide]	0.7404	0.7816	0.7616				
O=C(/C=C/c1ccc(Cl)c(Cl)c1)Nc1ccc(Cl)cc1 [2g, (2E)-N-(4-Chlorophenyl)-3-(3,4-dichlorophenyl)prop-2-enamide]	0.6786	0.7224	0.7021				
O=C(/C=C/c1ccc(Cl)c(Cl)c1)Nc1ccccc1C(F)(F)F [2h, (2E)-3-(3,4-Dichlorophenyl)-N-[2-(trifluoromethyl)phenyl]prop-2-enamide]	0.6836	0.7295	0.6526				
O=C(/C=C/c1ccc(Cl)c(Cl)c1)Nc1ccc(F)cc1F [2l, (2E)-3-(3,4-Dichlorophenyl)-N-(2,4-difluorophenyl)prop-2-enamide]	0.6989	0.7094	0.6632				
O=C(/C=C/c1ccc(Cl)c(Cl)c1)Nc1cc(F)cc(F)c1 [2m, (2E)-3-(3,4-Dichlorophenyl)-N-(3,5-difluorophenyl)prop-2-enamide]	0.9298	0.9345	0.8882				
O=C(/C=C/c1ccc(Cl)c(Cl)c1)Nc1ccc(Cl)cc1Cl [2n, (2E)-N-(2,4-Dichlorophenyl)-3-(3,4-dichlorophenyl)prop-2-enamide]	1.0932	1.0985	1.0565				
O=C(/C=C/c1ccc(Cl)c(Cl)c1)Nc1cc(Cl)ccc1Cl [2o, (2E)-N-(2,5-Dichlorophenyl)-3-(3,4-dichlorophenyl)prop-2-enamide]	1.0840	1.0887	1.0474				
O=C(/C=C/c1ccc(Cl)c(Cl)c1)Nc1cc(Cl)cc(Cl)c1 [2p, (2E)-N-(3,5-Dichlorophenyl)-3-(3,4-dichlorophenyl)prop-2-enamide]	1.3043	1.3336	1.3080				
NNC(=O)c1ccncc1 [INH, isoniazid, reference compound]				0.000117 M (≈ 16 µg/mL)	0.000117 M (≈ 16.1 µg/mL)	0.000467 M (≈ 64 µg/mL)	0.000468 M (≈ 64.1 µg/mL)
CO[C@H]1/C=C/O[C@@]2(C)Oc3c(C)c(O)c4c(O)c(c(/C=N/N5CCN(C)CC5)c(O)c4c3C2=O)NC(=O)/C(C)=C\C=C\[C@H](C)[C@H](O)[C@@H](C)[C@@H](O)[C@@H](C)[C@H](OC(C)=O)[C@@H]1C [RIF, rifampicin, reference compound]				1.94e-05 M (≈ 16 µg/mL)	1.95e-05 M (≈ 16 µg/mL)	2.43e-06 M (≈ 2 µg/mL)	2.45e-06 M (≈ 2.02 µg/mL)
